Source: ChEMBL document CHEMBL1201862, “PubChem BioAssay data set” (2004)
Activity calls are given as the source filed them.

Assays:
[1] = biological target: T1, High affinity choline transporter 1 (Homo sapiens, UniProt Q9GZV3); test: CHT activators, dose response, cell-based, 10-point CRC, membrane potential dye (AID 602376); assay type: functional
T1 sequence (Q9GZV3 whole entry): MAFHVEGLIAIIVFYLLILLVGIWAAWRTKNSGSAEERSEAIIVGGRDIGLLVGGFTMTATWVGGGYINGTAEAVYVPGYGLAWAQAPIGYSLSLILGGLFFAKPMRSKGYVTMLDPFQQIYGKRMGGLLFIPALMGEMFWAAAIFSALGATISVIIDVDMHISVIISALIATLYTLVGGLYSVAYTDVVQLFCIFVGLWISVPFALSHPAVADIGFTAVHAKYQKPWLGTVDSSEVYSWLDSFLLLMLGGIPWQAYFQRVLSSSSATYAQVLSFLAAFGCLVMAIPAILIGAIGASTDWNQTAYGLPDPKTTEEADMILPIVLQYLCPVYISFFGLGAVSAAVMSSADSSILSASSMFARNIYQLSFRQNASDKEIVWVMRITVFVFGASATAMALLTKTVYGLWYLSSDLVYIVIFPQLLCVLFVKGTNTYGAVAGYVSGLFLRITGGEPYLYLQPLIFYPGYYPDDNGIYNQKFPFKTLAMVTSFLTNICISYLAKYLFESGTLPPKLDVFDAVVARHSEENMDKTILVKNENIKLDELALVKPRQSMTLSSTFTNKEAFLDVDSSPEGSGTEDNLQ

[2] = biological target: Phospholipase A2 (Homo sapiens, UniProt P04054); assay type: functional;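 further: confirmatory dose-response counterscreen on phospholipase A2, testing hits that came from an ultra-high-throughput screen for ATG4B inhibitors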
[3] = biological target: Cysteine protease ATG4B (Homo sapiens, UniProt Q9Y4P1); assay type: functional;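 further: Fluorescence-based dose-response confirmation assay measuring inhibition of ATG4B activity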
[4] = HEp-2 cell cytotoxicity, dose response, cytotoxicity control for RSV inhibitor project, HTS (AID 2410); assay type: functional; settings: human respiratory syncytial virus
[5] = biological target: T2, Aminopeptidase N (Plasmodium falciparum FcB1/Columbia, UniProt O96935); test: P. falciparum M1AAP inhibitors, biochemical, fluorogenic H-Leu-NHMec substrate, 1536-well (AID 1445); set-up: species or system Plasmodium falciparum 3D7, 3D7
T2 sequence (O96935 whole entry): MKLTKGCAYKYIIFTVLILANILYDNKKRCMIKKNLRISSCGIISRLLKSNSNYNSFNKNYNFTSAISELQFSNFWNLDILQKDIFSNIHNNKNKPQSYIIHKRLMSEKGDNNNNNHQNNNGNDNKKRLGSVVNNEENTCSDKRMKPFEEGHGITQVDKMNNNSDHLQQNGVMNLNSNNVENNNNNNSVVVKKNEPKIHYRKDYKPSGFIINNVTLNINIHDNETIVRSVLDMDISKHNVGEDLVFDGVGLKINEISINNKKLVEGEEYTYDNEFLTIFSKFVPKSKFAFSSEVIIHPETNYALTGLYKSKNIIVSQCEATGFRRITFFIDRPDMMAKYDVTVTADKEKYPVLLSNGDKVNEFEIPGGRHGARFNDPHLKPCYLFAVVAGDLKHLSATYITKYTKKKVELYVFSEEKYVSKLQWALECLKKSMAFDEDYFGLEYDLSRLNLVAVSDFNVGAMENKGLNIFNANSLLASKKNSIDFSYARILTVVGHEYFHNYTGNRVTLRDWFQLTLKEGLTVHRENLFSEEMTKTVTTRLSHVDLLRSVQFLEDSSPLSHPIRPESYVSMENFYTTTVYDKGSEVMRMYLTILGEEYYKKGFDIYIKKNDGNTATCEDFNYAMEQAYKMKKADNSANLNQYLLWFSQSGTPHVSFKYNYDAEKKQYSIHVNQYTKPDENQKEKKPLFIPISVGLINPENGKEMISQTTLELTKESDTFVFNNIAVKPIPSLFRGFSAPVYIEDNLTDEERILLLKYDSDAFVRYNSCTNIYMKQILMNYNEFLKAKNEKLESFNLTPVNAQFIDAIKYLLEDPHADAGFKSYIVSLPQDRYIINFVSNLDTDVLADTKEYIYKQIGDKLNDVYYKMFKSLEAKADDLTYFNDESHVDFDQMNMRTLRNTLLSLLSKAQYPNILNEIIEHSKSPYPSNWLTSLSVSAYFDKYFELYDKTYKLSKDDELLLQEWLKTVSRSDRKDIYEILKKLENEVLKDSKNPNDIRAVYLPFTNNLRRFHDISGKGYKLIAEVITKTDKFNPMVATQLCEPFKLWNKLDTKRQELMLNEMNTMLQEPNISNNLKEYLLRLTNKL

[6] = biological target: T3, Induced myeloid leukemia cell differentiation protein Mcl-1 (Homo sapiens, UniProt Q07820); assay type: functional
[7] = test system: Streptococcus; test: Group A Streptococcus viability loss, dose response, counter-screen for streptokinase expression inhibitor project, luminescence, BacTiterGlo (AID 1915); assay type: functional, organism-based;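 further: potency for reduction of bacterial viability or growth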
[8] = biological target: Estrogen receptor beta (Homo sapiens, UniProt Q92731); test: ERβ–SRC-3 coactivator interaction inhibitors, confirmation, orthogonal assay, biochemical, ELISA, streptavidin-HRP readout (AID 1060)
[9] = biological target: T3, Induced myeloid leukemia cell differentiation protein Mcl-1; test: MCL1-BIM BH3 interaction inhibitors, dose response, biochemical, fluorescence polarization, BIM-BH3 peptide, 1536-well (AID 2217)
[10] = biological target: T4, Streptokinase A (Streptococcus pyogenes serotype M1, UniProt P10520); test: S. pyogenes streptokinase expression inhibitors, potency, dose response, plasminogen activation absorbance, OD405 (AID 1914); assay type: functional, Streptococcus pyogenes M1 GAS;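 further: secreted streptokinase activity via plasminogen activation per viability signal from cell pellet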
T4 sequence (P10520 whole entry): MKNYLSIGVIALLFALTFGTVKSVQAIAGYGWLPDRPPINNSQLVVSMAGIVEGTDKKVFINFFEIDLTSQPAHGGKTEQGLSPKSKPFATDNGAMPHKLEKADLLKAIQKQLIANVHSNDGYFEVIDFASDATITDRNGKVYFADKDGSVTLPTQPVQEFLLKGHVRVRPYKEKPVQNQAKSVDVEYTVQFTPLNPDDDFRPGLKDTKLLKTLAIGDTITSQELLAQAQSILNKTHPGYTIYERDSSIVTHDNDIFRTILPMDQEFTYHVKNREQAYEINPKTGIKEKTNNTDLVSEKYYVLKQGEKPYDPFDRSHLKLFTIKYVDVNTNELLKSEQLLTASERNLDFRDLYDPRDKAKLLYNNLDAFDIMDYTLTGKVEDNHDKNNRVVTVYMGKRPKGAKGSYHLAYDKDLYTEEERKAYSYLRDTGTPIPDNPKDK

[11] = Vero E6 cell cytotoxicity, dose response, cytotoxicity control for non-replicating M. tuberculosis project, secondary assay (AID 492998); assay type: functional, VeroE6; settings: Vero C1008
[12] = biological target: Bcl-2-like protein 1 (Homo sapiens, UniProt Q07817); test: BCL-XL inhibitors, dose response, selectivity assay for MCL1 inhibitor project, biochemical, fluorescence polarization, 1536-well (AID 2218)
[13] = test system: Streptococcus sp. 'group A'; test: growth inhibition of control SK(-) GAS strain, dose response, counter-screen for streptokinase expression inhibitor project, luminescence, kanamycin, BacTiterGlo, confirmation (AID 1900); assay type: functional, organism-based
[14] = THP-1 cell cytotoxicity, dose response, cytotoxicity control for non-replicating M. tuberculosis project (AID 489025); assay type: functional

T3 sequence (Q07820 whole entry): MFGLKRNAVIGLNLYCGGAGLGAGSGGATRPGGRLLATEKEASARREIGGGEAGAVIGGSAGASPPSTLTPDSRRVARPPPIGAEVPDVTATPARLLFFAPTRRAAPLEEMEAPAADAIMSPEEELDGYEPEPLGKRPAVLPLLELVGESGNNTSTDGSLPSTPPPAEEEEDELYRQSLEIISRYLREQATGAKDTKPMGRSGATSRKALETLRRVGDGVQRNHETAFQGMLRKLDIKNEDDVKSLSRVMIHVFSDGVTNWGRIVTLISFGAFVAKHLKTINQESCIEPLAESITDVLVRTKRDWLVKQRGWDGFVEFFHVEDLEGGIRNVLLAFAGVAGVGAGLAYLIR
Bcl-2-like protein 1, sequence (Q07817 whole entry): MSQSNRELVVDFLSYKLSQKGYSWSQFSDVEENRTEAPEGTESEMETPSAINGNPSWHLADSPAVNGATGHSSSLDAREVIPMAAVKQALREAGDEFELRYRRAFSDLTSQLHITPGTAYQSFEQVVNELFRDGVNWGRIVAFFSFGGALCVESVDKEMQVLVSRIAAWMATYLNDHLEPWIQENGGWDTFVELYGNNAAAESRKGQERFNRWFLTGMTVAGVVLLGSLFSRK
Cysteine protease ATG4B, sequence (Q9Y4P1 whole entry): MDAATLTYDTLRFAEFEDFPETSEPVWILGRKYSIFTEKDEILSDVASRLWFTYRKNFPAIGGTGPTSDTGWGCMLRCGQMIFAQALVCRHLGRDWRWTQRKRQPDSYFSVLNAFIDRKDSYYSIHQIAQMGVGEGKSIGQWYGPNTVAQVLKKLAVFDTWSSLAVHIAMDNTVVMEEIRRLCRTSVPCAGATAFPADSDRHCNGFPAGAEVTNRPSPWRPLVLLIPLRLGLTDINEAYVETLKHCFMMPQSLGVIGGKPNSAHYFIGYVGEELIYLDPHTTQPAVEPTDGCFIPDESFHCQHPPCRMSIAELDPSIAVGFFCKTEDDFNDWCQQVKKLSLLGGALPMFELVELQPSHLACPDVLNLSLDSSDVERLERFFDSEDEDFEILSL
Estrogen receptor beta, sequence (Q92731 whole entry): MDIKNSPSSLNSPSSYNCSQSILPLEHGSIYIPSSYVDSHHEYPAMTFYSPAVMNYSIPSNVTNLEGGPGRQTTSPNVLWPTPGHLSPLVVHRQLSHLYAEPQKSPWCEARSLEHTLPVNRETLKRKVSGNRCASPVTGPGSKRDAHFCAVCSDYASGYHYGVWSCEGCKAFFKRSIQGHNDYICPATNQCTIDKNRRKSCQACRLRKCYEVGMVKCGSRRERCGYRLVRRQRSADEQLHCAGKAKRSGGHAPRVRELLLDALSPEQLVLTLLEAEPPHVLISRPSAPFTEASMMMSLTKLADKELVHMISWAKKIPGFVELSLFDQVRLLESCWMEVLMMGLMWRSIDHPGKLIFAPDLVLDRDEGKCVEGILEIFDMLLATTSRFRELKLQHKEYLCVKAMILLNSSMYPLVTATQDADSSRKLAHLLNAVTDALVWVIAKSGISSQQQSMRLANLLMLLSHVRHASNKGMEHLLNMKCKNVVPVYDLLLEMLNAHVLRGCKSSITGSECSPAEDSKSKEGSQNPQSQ
Phospholipase A2, sequence (P04054 whole entry): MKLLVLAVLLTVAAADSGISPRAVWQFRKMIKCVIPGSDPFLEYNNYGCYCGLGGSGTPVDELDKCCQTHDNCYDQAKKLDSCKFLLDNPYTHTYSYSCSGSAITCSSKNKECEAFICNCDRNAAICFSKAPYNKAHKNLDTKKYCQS

| Compound | EC50 [1] | IC50 [2] | IC50 [3] | CC50 [4] | IC50 [5] | IC50 [6] | EC50 [7] | IC50 [8] | IC50 [9] | EC50 [10] | CC50 [11] | IC50 [12] | EC50 [13] | CC50 [14] |
| --- | --- | --- | --- | --- | --- | --- | --- | --- | --- | --- | --- | --- | --- | --- |
| CC(c1ccccc1)N(CCC(c1ccccc1)C1CCOC(C)(C)C1)C(=O)c1ccco1 (centres undefined) | 5.67 µM (active) |  |  |  |  |  |  |  |  |  |  |  |  |  |
| C/C(=N/NC(=O)c1cc2ccccc2cc1O)C1C(=O)c2ccccc2C1=O |  | 4.87 µM (active) | 5.43 µM (active) | > 50 µM (active) | 12 µM (active) | 2.11 µM (active) | 10.1 µM (active) | 0.0588 µM (not active) | > 109 µM (not active) | > 150 µM (not active) | 16.7 µM (active) | > 109 µM (not active) | 1.03 µM (active) | 17.7 µM (active) |
